Experiments:
liver cancer cells = test: Liver cancer cell death with DGAT1 and DGAT2 inhibitors alone or in combination; assay type: cell-based, human
Method: MHCC97L 6×10^4 12 well plate, treated at 24 hours with 1% FBS DMEM with DGAT1 and DGAT2 inhibitors. Picture taken on day 4.
HEPG2 6×10^4 12 well plate, treated at 24 hours with 1% FBS DMEM with DGAT1 and DGAT2 inhibitors. Picture taken on day 4.
HeG2 8×10^4 12 well plate, treated at 24 hours with 1% FBS DMEM with DGAT1 and DGAT2 inhibitors. Picture taken on day 4.
Huh7 4×10^4 12-well plate, treated at 24 hours with 1% FBS DMEM with DGAT1 and DGAT2 inhibitors. Picture taken on day 4.
Hep3B 6×10^4 12-well plate, treated at 24 hours with 1% FBS DMEM with DGAT1 and DGAT2 inhibitors. Picture taken on day 4.
Huh7 6×10^4 12-well plate, treated at 24 hours with 1% FBS DMEM with DGAT1 and DGAT2 inhibitors. Picture taken on day 4.

GBM cells (U251) = test: Seahorse analysis of OCR and ECAR; assay type: cell-based, human; details: 20 μg/ml for 24 hours; for oxygen consumption rate (OCR): vs control cells
Method: (A, B) Transmission electron microscopy (TEM) analysis of the mitochondrial morphology in GBM cells (U251) treated with the DGAT1 inhibitor A-922500 (20 μg/ml) or DGAT2 inhibitor PF-06424439 (20 μg/ml) for 24 hr and shown in a or infected with shRNA-expressing lentivirus against DGAT1 for 48 hr and shown in b. Scale bar, 500 nm. Mitochondria are indicated by red arrows. Mitochondria length and loss of cristae (%) were quantified by ImageJ over 100 mitochondria in each group (mean±SEM). Statistical significance was determined by one-way ANOVA. * P<0.0001. (C, D) Representative fluorescence images of LDs (green) and mitochondria (red) in U251 cells treated with DGAT1 or DGAT2 inhibitor and shown in c or shRNA in (D) as in panels (A, B). LDs were stained with BODIPY 493/503 (green) and mitochondria were stained with MitoTracker Red. Nuclei were stained with Hoechst 33342 (blue). Scale bar, m. The percentage of cells with tubular or fragmented mitochondria was quantified by ImageJ in more than 100 cells (mean±SEM). Statistical significance was determined by one-way ANOVA. * P<0.001. (E, F) Analysis of mitochondrial activity by measuring oxygen consumption rate (OCR) in U251 cells treated with DGAT1/DGAT2 inhibitors or shRNA as in panels (A, B). Lower panels show the quantification of relative basal and maximal OCR change (details please see Methods). Data represent the mean±SD from 3 independent experiments. Basal OCR was determined as OCR before oligomycin subtract OCR after rotenone addition, and maximal OCR was determined as OCR after FCCP subtract OCR after rotenone addition. Statistical significance was determined by one-way ANOVA. * P<0.0001. (G, H) Representative fluorescence images of reactive oxygen species (ROS) production and mitochondria (green) in U251 cells treated with DGAT1/DGAT2 inhibitors or shRNA as in panels (A, B). ROS were detected with CellROX Deep Red, and mitochondria were stained with MitoTracker Green. Nuclei were stained with Hoechst 33342 (blue). Scale bar, 10 m. ROS levels were quantified by ImageJ in more than 100 cells (mean±SD). Statistical significance was determined by one-way ANOVA. * P<0.0001. (I, J) Representative fluorescence images of ROS levels (red) detected by CellROX Deep Red in U251 cells treated with the DGAT1 inhibitor or shRNA as in panels a and b in the presence or absence of N-acetyl-cysteine (NAC, 1 mM). Nuclei were stained with Hoechst 33342 (blue). Scale bar, 10 m. ROS levels were quantified by ImageJ in more than 100 cells (mean±SD) (right upper panels). Live and dead cells were counted by trypan blue staining after treatment for 3 days (mean±SD, n=3) (right bottom panels). Statistical significance was determined by one-way ANOVA. * P<0.0001. […]

[1] = DGAT1 inhibitor in combination with DGAT2 inhibitor

Structure (SMILES)	liver cancer cell death (liver cancer cells; [1])	liver cancer cell death (liver cancer cells; each single inhibitor)	extracellular acidification rate (ECAR) (GBM cells (U251))	oxygen consumption rate (OCR) (GBM cells (U251))
O=C(Nc1ccccc1)Nc1ccc(-c2ccc(C(=O)[C@@H]3CCC[C@H]3C(=O)O)cc2)cc1 [A-922500]	effective to kill liver cancer cells	no ability to induce liver cancer cell death	did not affect	markedly reduced
CS(=O)(=O)O.O=C([C@@H]1CCCN(c2ccc3[nH]c(C4(n5cc(Cl)cn5)CC4)nc3n2)C1)N1CCCC1 [PF-06424439]	effective to kill liver cancer cells	no ability to induce liver cancer cell death	did not affect	no reduction was observed
